Source: the supplement of paper PMC9262897, “Low-cost anti-mycobacterial drug discovery using engineered E. coli” (Nature Communications, 2022)
± gives the standard deviation of the averaged measurements.

Legend:
[1] = test system: E. coli wild-type control; assay: growth (OD600 after 10 h); higher = more growth
Protocol: (§1)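 Chemical-genetic validation profiles: TESEC strains (Mtb Asd or DapB, arabinose-inducible) or the wild-type control grown in a two-dimensional dilution series of drug (µM) and arabinose. Growth is read as OD600 after 10 h in triplicate.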

[2] = test system: E. coli TESEC strain (Mtb target enzyme); assay: growth (OD600 after 10 h); higher = more growth
Protocol: as §1

[3] = test system: ∆yeeO; assay: growth (OD600 after 24 h); higher = more growth
Protocol: (§2)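 E. coli BW25113 ΔaraC (Efflux+) or efflux-pump deletion strains (ΔtolC ΔentC, ΔemrE, ΔmdtI, ΔyeeO, ΔmdtK, ΔmdtM) diluted 1:100 in M9-based medium with a drug dilution series. Growth is read as OD600 after 24 h; 3 biological replicates.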

[4] = test system: Efflux+; assay: growth (OD600 after 24 h); higher = more growth
Protocol: as §2

[5] = test system: ∆mdtM; assay: growth (OD600 after 24 h); higher = more growth
Protocol: as §2

[6] = test system: ∆mdtI; assay: growth (OD600 after 24 h); higher = more growth
Protocol: as §2

[7] = test system: ∆mdtK; assay: growth (OD600 after 24 h); higher = more growth
Protocol: as §2

[8] = test system: ∆emrE; assay: growth (OD600 after 24 h); higher = more growth
Protocol: as §2

[9] = test system: ∆tolC ∆entC; assay: growth (OD600 after 24 h); higher = more growth
Protocol: as §2

CC/C(=C(/CC)c1ccc(O)cc1)c1ccc(O)cc1 [Diethylstilbestrol] (TESEC target enzyme: Mtb Asd)
growth
Conditions | drug 0.7 µM | drug 1.5 µM | drug 3.5 µM | drug 7.8 µM | drug 17.6 µM | drug 39.5 µM | drug 88.9 µM
[1], arabinose 15560 nM | 0.278 ± 0.025 | 0.244 ± 0.02 | 0.211 ± 0.021 | 0.134 ± 0.021 | 0.106 ± 0.062 | 0.077 ± 0.043 | –
[1], arabinose 28008 nM | 0.283 ± 0.023 | 0.225 ± 0.016 | 0.192 ± 0.0041 | 0.208 ± 0.13 | 0.109 ± 0.08 | 0.0887 ± 0.052 | –
[1], arabinose 50414 nM | 0.271 ± 0.046 | 0.23 ± 0.0031 | 0.192 ± 0.008 | 0.149 ± 0.038 | 0.185 ± 0.16 | 0.0973 ± 0.035 | –
[1], arabinose 90744 nM | 0.282 ± 0.023 | 0.238 ± 0.016 | 0.205 ± 0.007 | 0.155 ± 0.033 | 0.0906 ± 0.065 | 0.075 ± 0.027 | –
[1], arabinose 163340 nM | 0.245 ± 0.024 | 0.22 ± 0.013 | 0.207 ± 0.0089 | 0.163 ± 0.052 | 0.11 ± 0.03 | 0.108 ± 0.053 | –
[1], arabinose 294012 nM | 0.224 ± 0.025 | 0.222 ± 0.0093 | 0.201 ± 0.008 | 0.151 ± 0.035 | 0.0517 ± 0.0034 | 0.0476 ± 0.00066 | –
[1], arabinose 529221 nM | 0.189 ± 0.013 | 0.16 ± 0.007 | 0.141 ± 0.015 | 0.123 ± 0.014 | 0.0936 ± 0.042 | 0.139 ± 0.059 | –
[1], arabinose 952599 nM | 0.139 ± 0.03 | 0.112 ± 0.0031 | 0.103 ± 0.013 | 0.132 ± 0.01 | 0.0957 ± 0.02 | 0.0506 ± 0.0019 | 0.108 ± 0.054
[1], arabinose 1714678 nM | 0.118 ± 0.0057 | 0.104 ± 0.0052 | 0.106 ± 0.0022 | 0.112 ± 0.017 | 0.124 ± 0.024 | 0.147 ± 0.1 | 0.119 ± 0.015
[1], arabinose 3086420 nM | 0.119 ± 0.032 | 0.108 ± 0.0038 | 0.114 ± 0.0031 | 0.103 ± 0.0093 | 0.0984 ± 0.038 | 0.114 ± 0.03 | 0.111 ± 0.048
[1], arabinose 5555556 nM | 0.128 ± 0.019 | 0.112 ± 0.0045 | 0.119 ± 0.0052 | 0.119 ± 0.0086 | 0.0951 ± 0.04 | 0.0913 ± 0.011 | 0.0621 ± 0.019
[1], arabinose 10000000 nM | 0.122 ± 0.01 | 0.118 ± 0.015 | 0.1329 ± 0.00094 | 0.118 ± 0.017 | 0.13 ± 0.013 | 0.117 ± 0.049 | –
[2], arabinose 15560 nM | 0.236 ± 0.0089 | 0.214 ± 0.012 | – | – | – | – | –
[2], arabinose 28008 nM | 0.223 ± 0.071 | 0.157 ± 0.057 | – | – | – | – | –
[2], arabinose 50414 nM | 0.238 ± 0.078 | 0.191 ± 0.0078 | – | – | – | – | –
[2], arabinose 90744 nM | 0.252 ± 0.091 | 0.218 ± 0.026 | – | – | – | – | –
[2], arabinose 163340 nM | 0.254 ± 0.047 | 0.227 ± 0.018 | – | – | – | – | –
[2], arabinose 294012 nM | 0.29 ± 0.1 | 0.222 ± 0.017 | – | – | – | – | –
[2], arabinose 529221 nM | 0.207 ± 0.011 | 0.214 ± 0.018 | – | – | – | – | –
[2], arabinose 952599 nM | 0.2 ± 0.011 | 0.228 ± 0.0099 | – | – | – | – | –
[2], arabinose 1714678 nM | 0.2038 ± 0.002 | 0.208 ± 0.026 | – | – | – | – | –
[2], arabinose 3086420 nM | 0.177 ± 0.0086 | 0.202 ± 0.029 | – | – | – | – | –
[2], arabinose 5555556 nM | 0.168 ± 0.053 | 0.198 ± 0.023 | – | – | – | – | –
[2], arabinose 10000000 nM | 0.174 ± 0.013 | 0.184 ± 0.013 | – | – | – | – | –

Nc1nc2ccc(OC(F)(F)F)cc2s1 [Riluzole]
growth
Conditions | [3] | [4] | [5] | [6] | [7] | [8] | [9]
drug 16 µM | 0.958 ± 0.011 | 1.09 ± 0.017 | 0.802 ± 0.01 | 1.06 ± 0.02 | 0.831 ± 0.072 | 0.961 ± 0.026 | 1.05 ± 0.014
drug 31 µM | 0.905 ± 0.046 | 1.038 ± 0.0013 | 0.79 ± 0.015 | 1.045 ± 0.0025 | 0.799 ± 0.032 | 1.06 ± 0.066 | 1.09 ± 0.018
drug 62 µM | 0.851 ± 0.057 | 0.997 ± 0.033 | 0.776 ± 0.016 | 1.01 ± 0.021 | 0.788 ± 0.016 | 1.08 ± 0.037 | 1.02 ± 0.023
drug 125 µM | 0.909 ± 0.018 | 0.978 ± 0.019 | 0.74 ± 0.02 | 0.981 ± 0.029 | 0.749 ± 0.054 | 1.12 ± 0.039 | 0.97 ± 0.018
drug 250 µM | 0.857 ± 0.035 | 0.973 ± 0.024 | 0.785 ± 0.043 | 0.9767 ± 0.0089 | 0.741 ± 0.017 | 1.09 ± 0.053 | 0.634 ± 0.019
drug 500 µM | 0.703 ± 0.019 | 0.74 ± 0.04 | 0.527 ± 0.042 | 0.634 ± 0.072 | 0.669 ± 0.011 | 0.8264 ± 0.0056 | 0.0507 ± 0.0015
